Format in all cases: cell-based
Test [1] addresses T1, hNav1.2 (Homo sapiens, UniProt Q99250).
T1 construct: host or cells: HEK293
Put plainly: FLIPR membrane potential assay, hNav1.2. The note with it: for Selectivity for Nav1.7, Nav subtype 1.2: membrane potential assay. As to the method:
(§1) HEK293 cells stably expressing hNav1.1, hNav1.2, hNav1.3, hNav1.4, hNav1.5, hNav1.6, hNav1.7 and […] (SB Drug Discovery, Glasgow, UK) were cultured in minimum essential media (MEM) containing 10% v/v FBS supplemented with L-glutamine (2 mM) and selection antibiotics G-418 (0.5 mg/mL), blasticidin (2-4 μg/mL) and zeocin (0.5 mg/mL) as recommended by the manufacturer. CHO cells stably expressing hNav1.8 in a tetracycline-inducible system (Chantest, OH, USA) were cultured in Ham's F-12 containing 10% v/v FBS and selection antibiotics as recommended by the manufacturer. To induce hNav1.8 expression, cells were cultured in the presence of tetracycline (1 μg/mL) for 24 h at 27° C. Cells were grown in a humidified 5% CO2 incubator at 37° C., grown to 70-80% confluence, and passaged every 3-4 days using TrypLE Express (Invitrogen).
(§2) Cells were plated 48 h before the assay on 384-well black walled imaging plates at a density of 10,000 to 15,000 cells per well and were loaded with red membrane potential dye for 30 min at 37° C. (Molecular Devices, CA, USA). One vial of bulk red membrane potential dye was reconstituted to a 10× stock solution with PSS and stored at −20° C. and diluted to 1× solution with PSS on the day of the assay. […] Changes in membrane potential were assessed using the FLIPR^TETRA (excitation 515 to 545 nm, emission 565 to 625 nm) every second for 300 s after adding agonists.

The target of test [2] is T2, hNav1.5 (Homo sapiens, UniProt Q14524).
T2 construct: host or cells: HEK293
Put plainly: FLIPR membrane potential assay, hNav1.5. The note with it: for Selectivity for Nav1.7, Nav subtype 1.5: membrane potential assay. Here is the method: as §1, §2

In test [3] the target is T3, hNav1.3 (Homo sapiens, UniProt Q9NY46).
T3 construct: host or cells: HEK293
Put plainly: FLIPR membrane potential assay, hNav1.3. The note with it: for Selectivity for Nav1.7, Nav subtype 1.3: membrane potential assay. As to the method: as §1, §2

In test [4] the target is T4, hNav1.8 (Homo sapiens, UniProt Q9Y5Y9).
T4 construct: host or cells: HEK293
The test is described as follows: FLIPR membrane potential assay, hNav1.8. The note with it: for Selectivity for Nav1.7, Nav subtype 1.8: membrane potential assay. Here is the method:
as §1, §2

In test [5] the target is T5, hNav1.7 (Homo sapiens, UniProt Q15858).
T5 construct: host or cells: HEK293
Put plainly: FLIPR membrane potential assay, hNav1.7. The note with it: for Selectivity for Nav1.7, Nav subtype 1.7: membrane potential assay, reference subtype. Here is the method: as §1, §2

The target of test [6] is T6, hNav1.1 (Homo sapiens, UniProt P35498).
T6 construct: host or cells: HEK293
Put plainly: FLIPR membrane potential assay, hNav1.1. The note with it: for Selectivity for Nav1.7, Nav subtype 1.1: membrane potential assay. As to the method:
as §1, §2

Test [7] concerns the target T7, hNav1.4 (Homo sapiens, UniProt P35499).
T7 construct: host or cells: HEK293
The test is described as follows: FLIPR membrane potential assay, hNav1.4. The note with it: for Selectivity for Nav1.7, Nav subtype 1.4: membrane potential assay. As to the method:
as §1, §2

The target of test [8] is T8, hNav1.6 (Homo sapiens, UniProt Q9UQD0).
T8 construct: host or cells: HEK293
Put plainly: FLIPR membrane potential assay, hNav1.6. The note with it: for Selectivity for Nav1.7, Nav subtype 1.6: membrane potential assay. As to the method: as §1, §2

Where a SMILES comes first, the peptide text is derived from it. Bridges are numbered along the chain shown (N, C = ends).

T1 sequence (Q99250 whole entry): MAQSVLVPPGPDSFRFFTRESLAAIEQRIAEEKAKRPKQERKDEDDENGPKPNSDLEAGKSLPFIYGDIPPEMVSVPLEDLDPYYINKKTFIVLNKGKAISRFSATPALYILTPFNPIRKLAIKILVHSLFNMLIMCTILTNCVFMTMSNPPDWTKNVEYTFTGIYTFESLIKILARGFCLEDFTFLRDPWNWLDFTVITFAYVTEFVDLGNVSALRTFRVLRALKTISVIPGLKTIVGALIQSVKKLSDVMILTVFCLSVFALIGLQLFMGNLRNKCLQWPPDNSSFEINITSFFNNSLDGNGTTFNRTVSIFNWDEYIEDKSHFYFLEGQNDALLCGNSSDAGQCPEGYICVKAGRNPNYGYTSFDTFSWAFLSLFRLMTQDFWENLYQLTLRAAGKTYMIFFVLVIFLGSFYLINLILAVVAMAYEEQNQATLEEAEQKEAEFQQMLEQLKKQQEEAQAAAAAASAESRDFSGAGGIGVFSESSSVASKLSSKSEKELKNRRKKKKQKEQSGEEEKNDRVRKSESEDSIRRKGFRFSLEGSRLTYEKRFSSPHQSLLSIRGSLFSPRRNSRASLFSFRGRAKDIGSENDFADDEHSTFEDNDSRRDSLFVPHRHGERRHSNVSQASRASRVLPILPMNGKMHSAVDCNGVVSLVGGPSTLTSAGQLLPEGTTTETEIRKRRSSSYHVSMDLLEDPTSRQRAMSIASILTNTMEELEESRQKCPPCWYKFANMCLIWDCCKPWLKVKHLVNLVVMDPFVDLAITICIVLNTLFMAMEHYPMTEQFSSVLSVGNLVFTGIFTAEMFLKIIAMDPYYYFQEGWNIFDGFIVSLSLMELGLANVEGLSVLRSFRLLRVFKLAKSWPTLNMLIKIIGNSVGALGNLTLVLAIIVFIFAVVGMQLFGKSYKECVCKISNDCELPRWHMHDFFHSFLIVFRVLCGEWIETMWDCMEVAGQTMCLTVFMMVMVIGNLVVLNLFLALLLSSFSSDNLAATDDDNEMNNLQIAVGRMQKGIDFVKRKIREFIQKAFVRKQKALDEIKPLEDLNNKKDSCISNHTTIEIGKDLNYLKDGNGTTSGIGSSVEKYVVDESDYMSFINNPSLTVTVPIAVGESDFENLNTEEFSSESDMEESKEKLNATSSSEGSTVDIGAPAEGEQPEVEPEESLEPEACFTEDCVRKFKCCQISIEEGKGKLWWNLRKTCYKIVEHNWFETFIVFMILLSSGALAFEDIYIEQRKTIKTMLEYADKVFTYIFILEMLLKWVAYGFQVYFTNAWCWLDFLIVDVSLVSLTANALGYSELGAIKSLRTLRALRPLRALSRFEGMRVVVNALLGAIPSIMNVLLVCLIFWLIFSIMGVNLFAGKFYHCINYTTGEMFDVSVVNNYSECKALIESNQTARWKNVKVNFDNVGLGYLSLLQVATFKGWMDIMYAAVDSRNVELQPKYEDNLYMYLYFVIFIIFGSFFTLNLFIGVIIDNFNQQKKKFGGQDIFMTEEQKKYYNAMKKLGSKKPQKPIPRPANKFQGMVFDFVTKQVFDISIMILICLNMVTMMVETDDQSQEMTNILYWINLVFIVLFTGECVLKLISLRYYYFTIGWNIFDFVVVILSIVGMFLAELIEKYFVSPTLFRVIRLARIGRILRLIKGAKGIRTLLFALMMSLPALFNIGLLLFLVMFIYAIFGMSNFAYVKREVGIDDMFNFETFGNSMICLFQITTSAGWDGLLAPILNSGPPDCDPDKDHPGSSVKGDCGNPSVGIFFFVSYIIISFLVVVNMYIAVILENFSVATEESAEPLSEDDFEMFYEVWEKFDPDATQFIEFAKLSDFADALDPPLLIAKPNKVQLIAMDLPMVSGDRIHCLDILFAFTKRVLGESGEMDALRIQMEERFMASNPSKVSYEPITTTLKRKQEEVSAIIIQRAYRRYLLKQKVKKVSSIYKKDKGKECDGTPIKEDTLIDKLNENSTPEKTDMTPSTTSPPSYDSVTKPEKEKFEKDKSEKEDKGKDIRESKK
T7 sequence (P35499 whole entry): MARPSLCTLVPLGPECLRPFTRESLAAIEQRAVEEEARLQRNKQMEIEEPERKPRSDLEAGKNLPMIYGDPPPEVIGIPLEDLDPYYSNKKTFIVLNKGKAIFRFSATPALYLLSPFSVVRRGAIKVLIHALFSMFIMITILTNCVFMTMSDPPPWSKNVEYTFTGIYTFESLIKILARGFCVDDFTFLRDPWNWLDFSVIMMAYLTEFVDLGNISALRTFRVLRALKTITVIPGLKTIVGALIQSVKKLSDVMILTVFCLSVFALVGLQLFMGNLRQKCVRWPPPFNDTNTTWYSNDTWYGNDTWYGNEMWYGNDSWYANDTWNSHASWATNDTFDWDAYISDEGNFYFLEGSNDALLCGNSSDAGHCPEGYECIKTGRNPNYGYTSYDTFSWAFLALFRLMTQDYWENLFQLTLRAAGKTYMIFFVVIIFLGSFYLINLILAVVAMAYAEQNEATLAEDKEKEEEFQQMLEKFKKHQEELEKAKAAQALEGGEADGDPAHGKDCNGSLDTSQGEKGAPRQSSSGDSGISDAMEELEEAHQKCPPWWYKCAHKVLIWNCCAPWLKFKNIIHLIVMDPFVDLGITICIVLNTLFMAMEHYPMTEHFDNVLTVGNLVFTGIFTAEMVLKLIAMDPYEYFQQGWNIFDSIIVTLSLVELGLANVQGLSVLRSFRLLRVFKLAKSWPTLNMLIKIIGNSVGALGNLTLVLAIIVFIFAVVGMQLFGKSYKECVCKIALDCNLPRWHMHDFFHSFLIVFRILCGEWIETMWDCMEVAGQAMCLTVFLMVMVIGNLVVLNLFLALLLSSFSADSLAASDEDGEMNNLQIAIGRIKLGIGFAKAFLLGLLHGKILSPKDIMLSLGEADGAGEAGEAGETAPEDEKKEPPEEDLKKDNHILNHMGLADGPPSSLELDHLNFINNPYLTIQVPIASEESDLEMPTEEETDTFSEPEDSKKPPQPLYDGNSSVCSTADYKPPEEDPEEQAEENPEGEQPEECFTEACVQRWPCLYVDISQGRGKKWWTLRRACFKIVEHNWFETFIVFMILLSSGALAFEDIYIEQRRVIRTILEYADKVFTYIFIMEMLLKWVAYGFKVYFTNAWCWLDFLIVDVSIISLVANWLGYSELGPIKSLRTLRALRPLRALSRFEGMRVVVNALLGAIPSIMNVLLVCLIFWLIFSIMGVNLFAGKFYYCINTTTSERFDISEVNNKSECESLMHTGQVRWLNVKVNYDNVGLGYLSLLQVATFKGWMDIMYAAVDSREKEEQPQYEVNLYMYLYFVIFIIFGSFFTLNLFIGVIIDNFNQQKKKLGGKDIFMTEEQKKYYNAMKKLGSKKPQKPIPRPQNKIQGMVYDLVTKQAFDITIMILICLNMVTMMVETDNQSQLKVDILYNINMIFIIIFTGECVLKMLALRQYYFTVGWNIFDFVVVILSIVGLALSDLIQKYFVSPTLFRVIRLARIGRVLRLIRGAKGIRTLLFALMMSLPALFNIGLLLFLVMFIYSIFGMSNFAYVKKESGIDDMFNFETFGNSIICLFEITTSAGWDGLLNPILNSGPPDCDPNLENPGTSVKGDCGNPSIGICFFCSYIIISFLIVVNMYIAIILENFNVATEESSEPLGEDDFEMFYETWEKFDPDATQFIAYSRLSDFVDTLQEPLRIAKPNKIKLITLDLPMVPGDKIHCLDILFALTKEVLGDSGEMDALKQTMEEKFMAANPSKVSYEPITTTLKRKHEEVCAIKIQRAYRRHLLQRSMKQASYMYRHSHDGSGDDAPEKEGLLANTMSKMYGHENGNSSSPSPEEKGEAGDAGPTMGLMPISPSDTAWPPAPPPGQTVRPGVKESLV

For `CSCC[C@@H]1NC(=O)[C@H](Cc2ccc(O)cc2)NC(=O)[C@H](CCCNC(=N)N)NC(=O)[C@@H](NC(=O)[C@@H](N)CC(=O)O)CSSC[C@@H]2NC(=O)[C@@H]3CSSC[C@@H](C(=O)N[C@@H](C)C(=O)N[C@@H](Cc4c[nH]c5ccccc45)C(=O)N[C@@H](CC(=O)O)C(=O)N[C@@H](Cc4ccccc4)C(=O)N[C@H](C(=O)N[C@@H](Cc4ccccc4)C(=O)N[C@H](C(=O)O)[C@@H](C)O)[C@@H](C)O)NC(=O)[C@H](Cc4ccc(O)cc4)NC(=O)[C@H](CCCCN)NC(=O)[C@H](CCSC)NC(=O)[C@H](CCCCN)NC(=O)[C@H](CCCNC(=N)N)NC(=O)[C@H](CCCCN)NC(=O)[C@H](CSSC[C@H](NC(=O)[C@H](CC(N)=O)NC(=O)CNC(=O)[C@H](Cc4ccccc4)NC1=O)C(=O)N[C@@H](CCC(=O)O)C(=O)N[C@@H](CCCCN)C(=O)N[C@@H](CC(=O)O)C(=O)N[C@@H](CCC(=O)O)C(=O)N[C@@H](CC(=O)O)C(=O)N3)NC(=O)CNC(=O)[C@H](CC(C)C)NC(=O)[C@H](Cc1c[nH]cn1)NC(=O)[C@H](CCCCN)NC2=O` [[D8N]Pnc1a] (H-DCRYMFGNCEKDEDCCKHLGCKRKMKYCAWDFTFT-OH; disulfide 2-16, 9-21, 15-28), in test [1], the IC50 worked out at 147 nM and the “Selectivity for Nav1.7, Nav subtype 1.2” value turned out to be 6. In test [2], the IC50 is over 30000 nM and the “Selectivity for Nav1.7, Nav subtype 1.5” value is over 1000. Also, in test [3], the half-inhibitory concentration (IC50) is 3000 nM and the “Selectivity for Nav1.7, Nav subtype 1.3” value is given as 118. Also, in test [4], the IC50 is over 30000 nM and the “Selectivity for Nav1.7, Nav subtype 1.8” value is reported as over 1000. Besides, in test [5], the half-inhibitory concentration (IC50) is 24 nM and the “Selectivity for Nav1.7, Nav subtype 1.7” value came to 1. In test [6], the IC50 was 349 nM and the “Selectivity for Nav1.7, Nav subtype 1.1” value is listed as 14. Further, in test [7], it took 852 nM to reach half-maximal inhibition (IC50) and the “Selectivity for Nav1.7, Nav subtype 1.4” value is 35. In test [8], the IC50 was over 30000 nM and the “Selectivity for Nav1.7, Nav subtype 1.6” value is over 1000.
Take `CSCC[C@@H]1NC(=O)[C@H](Cc2ccc(O)cc2)NC(=O)[C@H](CCCNC(=N)N)NC(=O)[C@@H](NC(=O)[C@@H](N)CC(=O)O)CSSC[C@@H]2NC(=O)[C@@H]3CSSC[C@@H](C(=O)N[C@@H](C)C(=O)N[C@@H](Cc4c[nH]c5ccccc45)C(=O)N[C@@H](CC(=O)O)C(=O)N[C@@H](Cc4ccccc4)C(=O)N[C@H](C(=O)N[C@@H](Cc4ccccc4)C(=O)N[C@H](C(=O)O)[C@@H](C)O)[C@@H](C)O)NC(=O)[C@H](Cc4ccc(O)cc4)NC(=O)[C@H](CCCCN)NC(=O)[C@H](CCSC)NC(=O)[C@H](CCCCN)NC(=O)[C@H](CCCNC(=N)N)NC(=O)[C@H](CCCCN)NC(=O)[C@H](CSSC[C@H](NC(=O)[C@H](CC(=O)O)NC(=O)CNC(=O)[C@H](Cc4ccccc4)NC1=O)C(=O)N[C@@H](CCCCN)C(=O)N[C@@H](CCCCN)C(=O)N[C@@H](CC(=O)O)C(=O)N[C@@H](CCC(=O)O)C(=O)N[C@@H](CC(=O)O)C(=O)N3)NC(=O)CNC(=O)[C@H](CC(C)C)NC(=O)[C@H](Cc1c[nH]cn1)NC(=O)[C@H](CCCCN)NC2=O` [[E10K]Pnc1a] (H-DCRYMFGDCKKDEDCCKHLGCKRKMKYCAWDFTFT-OH; disulfide 2-16, 9-21, 15-28): in test [1], the half-maximal inhibitory concentration (IC50) amounted to 172 nM and the “Selectivity for Nav1.7, Nav subtype 1.2” value came to 4. For the same molecule, in test [2], the IC50 is 13000 nM and the “Selectivity for Nav1.7, Nav subtype 1.5” value was 326. Further, in test [3], half-maximal inhibition (IC50) was put at 5000 nM and the “Selectivity for Nav1.7, Nav subtype 1.3” value came out at 128. In test [4], the IC50 is over 30000 nM and the “Selectivity for Nav1.7, Nav subtype 1.8” value is on record as over 700. In test [5], it took 41 nM to reach half-maximal inhibition (IC50) and the “Selectivity for Nav1.7, Nav subtype 1.7” value is on record as 1. Further, in test [6], inhibition was half-maximal at 384 nM (IC50) and the “Selectivity for Nav1.7, Nav subtype 1.1” value amounted to 9. Besides, in test [7], half-maximal inhibition (IC50) required 2000 nM and the “Selectivity for Nav1.7, Nav subtype 1.4” value stood at 49. For the same molecule, in test [8], half-maximal inhibition (IC50) required 820 nM and the “Selectivity for Nav1.7, Nav subtype 1.6” value is listed as 20.

The IC50 is the midpoint of a concentration-inhibition curve. A higher IC50 goes with weaker potency in that assay.

The values are drawn from patent US10662229B2, “Spider venom peptides and methods of use for modulating sodium channels” (priority 2016, dated 2020).
